Laboratory results published in ChEMBL document CHEMBL2073763, “Functional involvement of rat organic anion transporter 3 (rOat3; Slc22a8) in the renal uptake of organic anions” (J Pharmacol Exp Ther, 2002).

T1: Organic anion transporter 3 (Rattus norvegicus, UniProt Q9R1U7)
T1 sequence (Q9R1U7 whole entry): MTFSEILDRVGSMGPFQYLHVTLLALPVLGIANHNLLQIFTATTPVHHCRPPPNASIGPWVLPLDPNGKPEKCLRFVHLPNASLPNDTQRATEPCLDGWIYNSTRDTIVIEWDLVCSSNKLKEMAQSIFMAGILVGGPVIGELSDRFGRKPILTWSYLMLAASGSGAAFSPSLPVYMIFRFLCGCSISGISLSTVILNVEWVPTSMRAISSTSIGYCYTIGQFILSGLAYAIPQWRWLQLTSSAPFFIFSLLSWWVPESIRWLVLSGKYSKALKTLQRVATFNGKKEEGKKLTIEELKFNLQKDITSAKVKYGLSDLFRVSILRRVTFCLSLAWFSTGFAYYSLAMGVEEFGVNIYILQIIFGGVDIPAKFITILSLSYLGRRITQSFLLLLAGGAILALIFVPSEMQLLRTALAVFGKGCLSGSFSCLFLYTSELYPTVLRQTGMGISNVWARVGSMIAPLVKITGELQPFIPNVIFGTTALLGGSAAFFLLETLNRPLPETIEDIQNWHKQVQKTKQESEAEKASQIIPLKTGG

T2: Solute carrier family 22 member 6 (Rattus norvegicus, UniProt O35956)
T2 sequence (O35956 whole entry): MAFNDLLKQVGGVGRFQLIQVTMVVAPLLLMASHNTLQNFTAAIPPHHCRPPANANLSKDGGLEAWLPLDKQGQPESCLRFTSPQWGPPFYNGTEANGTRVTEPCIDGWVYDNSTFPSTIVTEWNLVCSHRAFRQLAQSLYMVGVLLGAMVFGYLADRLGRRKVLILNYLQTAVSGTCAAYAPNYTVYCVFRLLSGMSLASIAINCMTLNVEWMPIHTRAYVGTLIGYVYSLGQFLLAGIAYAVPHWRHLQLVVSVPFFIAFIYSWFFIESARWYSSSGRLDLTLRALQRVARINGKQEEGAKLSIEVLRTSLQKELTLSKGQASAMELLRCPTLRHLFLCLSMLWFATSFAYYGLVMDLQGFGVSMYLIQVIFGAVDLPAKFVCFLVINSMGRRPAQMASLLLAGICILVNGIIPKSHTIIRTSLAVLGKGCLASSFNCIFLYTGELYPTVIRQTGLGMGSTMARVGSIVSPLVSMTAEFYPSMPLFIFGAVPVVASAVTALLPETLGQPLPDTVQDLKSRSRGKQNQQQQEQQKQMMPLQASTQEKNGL

B1: Organic anion transporter 3 (Rattus norvegicus) (protein)
chain: MTFSEILDRVGSMGPFQYLHVTLLALPVLGIANHNLLQIFTATTPVHHCRPPPNASIGPWVLPLDPNGKPEKCLRFVHLPNASLPNDTQRATEPCLDGWIYNSTRDTIVIEWDLVCSSNKLKEMAQSIFMAGILVGGPVIGELSDRFGRKPILTWSYLMLAASGSGAAFSPSLPVYMIFRFLCGCSISGISLSTVILNVEWVPTSMRAISSTSIGYCYTIGQFILSGLAYAIPQWRWLQLTSSAPFFIFSLLSWWVPESIRWLVLSGKYSKALKTLQRVATFNGKKEEGKKLTIEELKFNLQKDITSAKVKYGLSDLFRVSILRRVTFCLSLAWFSTGFAYYSLAMGVEEFGVNIYILQIIFGGVDIPAKFITILSLSYLGRRITQSFLLLLAGGAILALIFVPSEMQLLRTALAVFGKGCLSGSFSCLFLYTSELYPTVLRQTGMGISNVWARVGSMIAPLVKITGELQPFIPNVIFGTTALLGGSAAFFLLETLNRPLPETIEDIQNWHKQVQKTKQESEAEKASQIIPLKTGG

Key:
Format in all cases: functional, cell-based
[1] = biological target: T1, Organic anion transporter 3; assay: TP_TRANSPORTER: inhibition of Pravastatin uptake in Oat3-expressing LLC-PK1 cells
[2] = biological target: T2, Solute carrier family 22 member 6; assay: TP_TRANSPORTER: inhibition of PAH uptake in Oat1-expressing LLC-PK1 cells
[3] = substrate: CC[C@H](C)C(=O)O[C@H]1C[C@H](O)C=C2C=C[C@H](C)[C@H](CC[C@@H](O)C[C@@H](O)CC(=O)O)[C@H]21; assay: TP_TRANSPORTER: uptake in Oat3-expressing LLC-PK1 cells

Molecule	Ki [1] [µM]	Ki [2] [µM]	Km [3] [µM]
O=C1OC(c2ccc(OS(=O)(=O)O)cc2)(c2ccc(OS(=O)(=O)O)cc2)c2c(Br)ccc(Br)c21 [DIBROMOSULFOPHTHALEIN]	3.09	2.74	
CC1(C)S[C@@H]2[C@H](NC(=O)Cc3ccccc3)C(=O)N2[C@H]1C(=O)O [PENICILLIN G]	52.8		
Nc1ccc(C(=O)NCC(=O)O)cc1 [AMINOHIPPURIC ACID]	1350		
CC[C@H](C)C(=O)O[C@H]1C[C@H](O)C=C2C=C[C@H](C)[C@H](CC[C@@H](O)C[C@@H](O)CC(=O)O)[C@H]21 [PRAVASTATIN]		1150	
B1			13.4
